Assay results taken from US5756491A, “Antiviral cobalt-organic compounds” (priority 1991, dated 1998).

Columns and labels:
HFF cells = experiment: Cell proliferation assay; assay type: cell-based, human; conditions: rapidly growing cells
RE strain HSV-1 = experiment: HSV-1 recovery from tear film, cornea and trigeminal ganglia of treated rabbits; assay type: in vivo, NZW rabbit
Procedure, shortened: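 NZW rabbits (1.5-2.0 kg) were inoculated bilaterally by intrastromal injection of 10^5 PFU HSV-1. Tear-film swabs on days 0, 3, 5 and 7 PI were cultured on HFF monolayers and scored for CPE. After sacrifice, corneal epithelial/stromal and trigeminal ganglion co-cultures were scored positive or negative for HSV CPE; negative ganglion cultures were blind-passaged twice.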

[1] = tested on: human foreskin fibroblast (HFF) cell monolayers; experiment: Toxicity effects controls: sham-inoculated compound-treated HFF monolayers; assay type: cell-based; as to Toxicity effects: key: +: toxic; -: no toxicity; ±: mild toxicity; T: toxicity effects interfered with CPE rating
From the text: With sufficient stirring, all the compounds completely dissolved.
In the tables, the symbols have the meaning indicated: […]

HSV-1 McKrae Strain = experiment: Direct virucidal efficacy against HSV-1 on HFF monolayers; assay type: cell-based; conditions: for effective virucidal concentration IC50 / effective virucidal concentration IC90: HSV-1

SMILES: CC([O-])=CC(C)=NCCN=C(C)C=C(C)[O-].Cc1ncc[nH]1.Cc1ncc[nH]1.[Br-].[Co+3] [Compound 96]
- toxicity IC50, cell proliferation (HFF cells): 21.0 MCG/ML
- HSV-1 recovery, corneal epithelium (C.E.) (RE strain HSV-1; Example 3 (Table 22)): 50%
- HSV-1 recovery, corneal stroma (C.S.) (RE strain HSV-1; Example 3 (Table 22)): 50%
- HSV-1 recovery, trigeminal ganglia (T.G.) (RE strain HSV-1; Example 3 (Table 22)): 50%
- HSV-1 recovery, tear film (positive samples of total) (RE strain HSV-1; Example 3 (Table 22), day 3 PI): 100%
- HSV-1 recovery, tear film (positive samples of total) (RE strain HSV-1; Example 3 (Table 22), day 5 PI): 100%
- HSV-1 recovery, tear film (positive samples of total) (RE strain HSV-1; Example 3 (Table 22), day 7 PI): 80%
- HSV-1 recovery, tear film (positive samples of total) (RE strain HSV-1; Example 3 (Table 22), day 9 PI): 0%
- recovery of HSV-1 in tear film (RE strain HSV-1; Example 4): reduced the recovery of HSV-1 in tear film
- HSV-1 recovery, corneal stroma (RE strain HSV-1; Example 5 (Table 23)): 70%
- HSV-1 recovery (positive cultures per total) (RE strain HSV-1; Example 5 (Table 23), column 1): 0%
- HSV-1 recovery (positive cultures per total) (RE strain HSV-1; Example 5 (Table 23), column 3): 100%
- HSV-1 recovery (positive cultures per total) (RE strain HSV-1; Example 5 (Table 23), column 5): 90%
- HSV-1 recovery (positive cultures per total) (RE strain HSV-1; Example 5 (Table 23), column 7): 70%
- toxicity at 1 mg/ml (comment) [1]: a lack of toxicity
- toxicity effects ([1]; Experiment 3 (Table 7), 24 h PI, 0.001 mg/ml): -
- toxicity effects ([1]; Experiment 3 (Table 7), 24 h PI, 0.01 mg/ml): -
- toxicity effects ([1]; Experiment 3 (Table 7), 24 h PI, 0.1 mg/ml): -
- toxicity effects ([1]; Experiment 3 (Table 7), 24 h PI, 1 mg/ml): -
- toxicity effects ([1]; Experiment 3 (Table 7), 48 h PI, 0.001 mg/ml): -
- toxicity effects ([1]; Experiment 3 (Table 7), 48 h PI, 0.01 mg/ml): -
- toxicity effects ([1]; Experiment 3 (Table 7), 48 h PI, 0.1 mg/ml): -
- toxicity effects ([1]; Experiment 3 (Table 7), 48 h PI, 1 mg/ml): -
- toxicity effects ([1]; Experiment 4 (Table 10), 24 h, 0.001 mg/ml): -
- toxicity effects ([1]; Experiment 4 (Table 10), 24 h, 0.01 mg/ml): -
- toxicity effects ([1]; Experiment 4 (Table 10), 24 h, 0.5 mg/ml): -
- toxicity effects ([1]; Experiment 4 (Table 10), 24 h, 1 mg/ml): -
- toxicity effects ([1]; Experiment 4 (Table 10), 48 h, 0.001 mg/ml): -
- toxicity effects ([1]; Experiment 4 (Table 10), 48 h, 0.01 mg/ml): -
- toxicity effects ([1]; Experiment 4 (Table 10), 48 h, 0.5 mg/ml): -
- toxicity effects ([1]; Experiment 5 (Table 13), 24 h, 0.00 mg/ml (so in the source)): -
- toxicity effects ([1]; Experiment 5 (Table 13), 24 h, 0.01 mg/ml): -
- toxicity effects ([1]; Experiment 5 (Table 13), 24 h, 0.5 mg/ml): -
- toxicity effects ([1]; Experiment 5 (Table 13), 48 h, 0.00 mg/ml (so in the source)): -
- toxicity effects ([1]; Experiment 5 (Table 13), 48 h, 0.01 mg/ml): -
- toxicity effects ([1]; Experiment 5 (Table 13), 48 h, 0.5 mg/ml): -
- toxicity effects ([1]; Experiment 5 (Table 13), 48 h, 5 mg/ml): +
- toxicity effects ([1]; Experiment 6 (Table 15), 48 h, 0.001 mg/ml): -
- toxicity effects ([1]; Experiment 6 (Table 15), 48 h, 0.01 mg/ml): -
- toxicity effects ([1]; Experiment 6 (Table 15), 48 h, 1 mg/ml): -
- toxicity to HFF monolayers (comment) ([1]; Experiment 6 comment, more pronounced at 0.5 and 0.1 mg/ml, cell rounding, detaching, granularity): toxicity observed
- virucidal efficacy (HSV-1 titer) (HSV-1 McKrae Strain; Experiment 2 (Table 5), 24 h PI, 0.001 mg/ml): 10^4 PFU/ml
- virucidal efficacy (HSV-1 titer) (HSV-1 McKrae Strain; Experiment 2 (Table 5), 24 h PI, 1 mg/ml): 0 PFU/ml
- virucidal efficacy (HSV-1 titer) (HSV-1 McKrae Strain; Experiment 2 (Table 5), 48 h PI, 0.01 mg/ml): 10^6 PFU/ml
- virucidal efficacy (HSV-1 titer) (HSV-1 McKrae Strain; Experiment 2 (Table 5), 48 h PI, 1 mg/ml): 0 PFU/ml
- effective virucidal concentration IC50 (HSV-1 McKrae Strain; Experiment 2 (Table 6)): 100 µg/mL
- virucidal efficacy (HSV-1 titer) (HSV-1 McKrae Strain; Experiment 3 (Table 8), 24 h PI, 0.001 mg/ml): 10^5 PFU/ml
- virucidal efficacy (HSV-1 titer) (HSV-1 McKrae Strain; Experiment 3 (Table 8), 24 h PI, 1 mg/ml): 0 PFU/ml
- virucidal efficacy (HSV-1 titer) (HSV-1 McKrae Strain; Experiment 3 (Table 8), 48 h PI, 1 mg/ml): 10^5 PFU/ml
- virucidal efficacy (HSV-1 titer) (HSV-1 McKrae Strain; Experiment 4 (Table 9), 24 h PI, Run 1, 5 mg/ml): 0 PFU/ml
- virucidal efficacy (HSV-1 titer) (HSV-1 McKrae Strain; Experiment 4 (Table 9), 24 h PI, Run 2, 0.01 mg/ml): 10^4 PFU/ml
- virucidal efficacy (HSV-1 titer) (HSV-1 McKrae Strain; Experiment 4 (Table 9), 24 h PI, Run 2, 0.1 mg/ml): 10^2 PFU/ml
- virucidal efficacy (HSV-1 titer) (HSV-1 McKrae Strain; Experiment 4 (Table 9), 24 h PI, Run 2, 1 mg/ml): 0 PFU/ml
- virucidal efficacy (HSV-1 titer) (HSV-1 McKrae Strain; Experiment 4 (Table 9), 24 h PI, Run 2, 5 mg/ml): 0 PFU/ml
- effective virucidal concentration IC90 (HSV-1 McKrae Strain; Experiment 4 (Table 11)): > 1000 µg/mL
- virucidal efficacy (HSV-1 titer) (HSV-1 McKrae Strain; Experiment 5 (Table 12), 24 h PI, Run 1, 0.0001 mg/ml): 10^5 PFU/ml
- virucidal efficacy (HSV-1 titer) (HSV-1 McKrae Strain; Experiment 5 (Table 12), 24 h PI, Run 1, 0.1 mg/ml): 10^2 PFU/ml
- virucidal efficacy (HSV-1 titer) (HSV-1 McKrae Strain; Experiment 5 (Table 12), 24 h PI, Run 1, 1 mg/ml): 0 PFU/ml
- virucidal efficacy (HSV-1 titer) (HSV-1 McKrae Strain; Experiment 5 (Table 12), 24 h PI, Run 1, 5 mg/ml): 0 PFU/ml
- virucidal efficacy (HSV-1 titer) (HSV-1 McKrae Strain; Experiment 5 (Table 12), 24 h PI, Run 2, 0.0001 mg/ml): 10^3 PFU/ml
- virucidal efficacy (HSV-1 titer) (HSV-1 McKrae Strain; Experiment 5 (Table 12), 24 h PI, Run 2, 0.001 mg/ml): 10^3 PFU/ml
- virucidal efficacy (HSV-1 titer) (HSV-1 McKrae Strain; Experiment 5 (Table 12), 24 h PI, Run 2, 0.01 mg/ml): 10^3 PFU/ml
- virucidal efficacy (HSV-1 titer) (HSV-1 McKrae Strain; Experiment 5 (Table 12), 24 h PI, Run 2, 0.1 mg/ml): 0 PFU/ml
- virucidal efficacy (HSV-1 titer) (HSV-1 McKrae Strain; Experiment 5 (Table 12), 24 h PI, Run 2, 1 mg/ml): 0 PFU/ml
- virucidal efficacy (HSV-1 titer) (HSV-1 McKrae Strain; Experiment 5 (Table 12), 24 h PI, Run 2, 5 mg/ml): 0 PFU/ml
- effective virucidal concentration IC50 (HSV-1 McKrae Strain; Experiment 5 (Table 14)): 100 to 1000 µg/mL
- effective virucidal concentration IC90 (HSV-1 McKrae Strain; Experiment 5 (Table 14)): > 1000 µg/mL
- virucidal efficacy (HSV-1 titer) (HSV-1 McKrae Strain; Experiment 6 (Table 16), 24 h PI, 0.5 mg/ml): 0 PFU/ml
- virucidal efficacy (HSV-1 titer) (HSV-1 McKrae Strain; Experiment 6 (Table 16), 24 h PI, 1 mg/ml): 0 PFU/ml
- virucidal efficacy (HSV-1 titer) (HSV-1 McKrae Strain; Experiment 6 (Table 16), 24 h PI, 2 mg/ml): 0 PFU/ml
- virucidal efficacy (HSV-1 titer) (HSV-1 McKrae Strain; Experiment 6 (Table 16), 24 h PI, 5 mg/ml): 0 PFU/ml
- effective virucidal concentration IC50 (HSV-1 McKrae Strain; Experiment 6 (Table 17)): 100 µg/mL
- efficacy in virucidal assay (comment) (HSV-1 McKrae Strain; Experiment 6 comment, reduction in toxicity resulted in it): reduction in efficacy
